According to ChEMBL document CHEMBL1130516, “Synthesis and biological activity of novel penem sulfoxides and sulfones” (Bioorg Med Chem Lett, 1997):

Tests used:
[1] = Compound was evaluated for relative hydrolysis rate; format: ADME
[2] = Compound was evaluated for half life of hydrolysis in phosphate buffer at pH 7.4 and 37 degree C; format: ADME
Enterococcus = assay: Inhibitory zone of compound at 30 ug against Enterococcus was determined; format: functional
Escherichia coli [3] = assay: Inhibitory zone of compound at 30 ug against Escherichia coli 1103 was determined; format: functional
Escherichia coli [4] = assay: Inhibitory zone of compound at 30 ug against Escherichia coli TEM was determined; format: functional
Enterobacter cloacae = assay: Inhibitory zone of compound at 30 ug against Enterobacter cloacae was determined; format: functional
Pseudomonas aeruginosa = assay: Inhibitory zone of compound at 30 ug against Pseudomonas aeruginosa was determined; format: functional
Staphylococcus aureus = assay: Inhibitory zone of compound at 30 ug against Staphylococcus aureus 1104 was determined; format: functional
Staphylococcus [5] = assay: Inhibitory zone of compound at 30 ug against Staphylococcus 25768 was determined; format: functional
Staphylococcus [6] = assay: Inhibitory zone of compound at 30 ug against Staphylococcus innsbruck was determined; format: functional
Beta-lactamase TEM [7] = molecular target: T1, Beta-lactamase TEM (Escherichia coli, UniProt P62593); assay: (§1) Compound was evaluated for beta-lactamase inhibition activity of Escherichia coli after 15 min of pre-incubation with the enzyme at 37 degree C
Beta-lactamase = Beta-lactamase (Enterobacter cloacae, UniProt P05364); assay: Compound was evaluated for beta-lactamase inhibition activity of Enterobacter cloacae after 15 min of pre-incubation with the enzyme at 37 degree C
Beta-lactamase TEM [8] = molecular target: T1, Beta-lactamase TEM; assay: as §1; design: species or system Escherichia cloacae

Chain of Beta-lactamase (P05364 whole entry): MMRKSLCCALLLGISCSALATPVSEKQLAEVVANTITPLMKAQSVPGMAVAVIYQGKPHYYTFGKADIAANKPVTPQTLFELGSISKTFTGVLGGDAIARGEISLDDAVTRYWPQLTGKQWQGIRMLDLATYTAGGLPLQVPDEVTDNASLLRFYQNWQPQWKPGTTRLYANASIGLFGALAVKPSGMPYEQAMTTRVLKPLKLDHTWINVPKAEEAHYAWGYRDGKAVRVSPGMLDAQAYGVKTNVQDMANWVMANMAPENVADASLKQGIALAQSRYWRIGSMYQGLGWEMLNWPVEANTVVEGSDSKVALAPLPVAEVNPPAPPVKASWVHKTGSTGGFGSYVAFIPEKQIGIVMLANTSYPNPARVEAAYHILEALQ
T1 sequence (P62593 whole entry): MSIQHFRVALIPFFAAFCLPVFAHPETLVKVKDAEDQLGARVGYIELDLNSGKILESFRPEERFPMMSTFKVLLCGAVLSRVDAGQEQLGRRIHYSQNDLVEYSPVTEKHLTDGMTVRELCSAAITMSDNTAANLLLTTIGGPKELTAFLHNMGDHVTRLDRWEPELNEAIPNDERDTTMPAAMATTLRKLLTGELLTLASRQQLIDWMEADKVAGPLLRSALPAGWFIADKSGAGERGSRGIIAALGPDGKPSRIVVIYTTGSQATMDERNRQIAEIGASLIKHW

Row | SMILES | Krel [1] | half-life [2] | Inhibition zone (Enterococcus) | Inhibition zone (Escherichia coli [3]) | Inhibition zone (Escherichia coli [4]) | Inhibition zone (Enterobacter cloacae) | Inhibition zone (Pseudomonas aeruginosa) | Inhibition zone (Staphylococcus aureus) | Inhibition zone (Staphylococcus [5]) | Inhibition zone (Staphylococcus [6]) | IC50 (Beta-lactamase TEM [7]) | IC50 (Beta-lactamase) | IC50 (Beta-lactamase TEM [8])
1 | CC(C)(C)C1=C(C(=O)[O-])N2C(=O)C[C@H]2[S+]1[O-].[K+] (some centres undefined) | 39 | 5.5 h | 0 mm | 10 mm | 0 mm | 0 mm | 0 mm | 36 mm | 8 mm | 0 mm |  |  | 
2 | C[C@@H](O)[C@H]1C(=O)N2C(C(=O)[O-])=C(C(C)(C)C)[S+]([O-])[C@H]12.[K+] (some centres undefined) | 33 | 6.5 h | 0 mm | 20 mm | 13 mm | 7 mm | 0 mm | 30 mm | 24 mm | 0 mm | 90 µM | 0.3 µM | 
3 | C[C@@H](O)[C@H]1C(=O)N2C(C(=O)[O-])=C(C(C)(C)C)S(=O)(=O)[C@H]12.[K+] | 720 | 18 h | 0 mm | 0 mm | 0 mm | 0 mm | 0 mm | 0 mm | 0 mm | 0 mm | 10 µM | 0.004 µM | 
4 | C[C@@H](O)[C@H]1C(=O)N2C(C(=O)[O-])=C(C(C)(C)C)S[C@H]12.[K+] | 0.6 | 16 h | 11 mm | 18 mm | 9 mm | 10 mm | 0 mm | 36 mm | 31 mm | 0 mm |  | 0.3 µM | 50 µM
5 | CC(C)(C)C1=C(C(=O)[O-])N2C(=O)C[C@H]2S1.[K+] | 1 | 9 h | 0 mm | 11 mm | 0 mm | 0 mm | 0 mm | 40 mm | 0 mm | 0 mm |  |  | 
6 | N[C@@H](C(=O)N[C@@H]1C(=O)N2C(C(=O)O)=C(Cl)CS[C@H]12)c1ccccc1.O [CEFACLOR] |  |  | 15 mm | 25 mm | 15 mm | 7 mm | 0 mm | 32 mm | 13 mm | 12 mm |  |  | 
